Measured values taken from PMC8786932, “Bicyclic azetidines target acute and chronic stages of Toxoplasma gondii by inhibiting parasite phenylalanyl t-RNA synthetase” (Nature Communications, 2022).
Values joined by “and” are separate entries in the source; they are usually repeats but may differ in a detail not shown here. Equal entries are not always repeated. Where two headings read alike, the source gives them in different places.

Tests used:
[1] = tested on: T. gondii RHΔΔ TgPheRS[L497I]; test: Tachyzoite lytic assay, L497I mutant; assay type: cell-based, Toxoplasma gondii; details: for % Parasite Growth: L497I; for EC50: Toxoplasma gondii
Description: (§1) In vitro cultures of HFF cells containing mature vacuoles were scraped, passaged through 23 g blunt end needles, and filtered using 3 micron filters. Purified parasites were resuspended in 350 μL of cytomix plus[49] and combined in a BTX 4 mm gap cuvette with 30 μL of PCR amplified templates corresponding to mutations of interest and 10 μg of pSAG1:Cas9-GFP U6:sgTgPheRS^[mut] (in 20 μL, 400 μL total volume, see Supplementary Data 1 for sgRNA sequences) prior to electroporation using a BTX ETM 830 electroporator. Amplified templates for TgPheRS mutations were generated from gBlocks (Integrated DNA Technologies, Coralville, IA, USA) that contain a BclI restriction site that replaces the PAM sequence to protect the repair template from being cut by Cas9. At 16 h post-transfection, transgenic parasites expressing pSAG1:Cas9-GFP were sorted on a Sony SH800 FACS sorter directly into 96-well plates. Single clones containing TgPheRS^[mut] were identified by amplifying a ~500 bp PCR fragment around introduced mutation followed by digestion using BclI (New England Biolabs) BclI sensitive clones were expanded and the locus was Sanger sequenced to verify incorporation of each independent mutation. To generate firefly luciferase (FLuc) expressing strains, freshly harvested parasites were combined with 20 μg of pTUB-FLUC DHFR flox plasmid and 10 μg of pSAG1:Cas9-GFP U6:sgUPRT[50] (in 50 μL cytomix plus) and transformed by electroporation as described above. Parasites were allowed to recover overnight followed by sequential selection with pyrimethamine (1.0 μM) and 5-flurodeoxyuracil (FUDR, 10 μM), as described previously. Stable clones were isolated by limiting dilution and a clone from each genetic background selected based on high luciferase activity (Table 1).
Parasite growth on HFF monolayers was monitored using a 96-well plate-based lytic assay modified from a previously described protocol. […]. Freshly harvested parasites (7.5 × 10^4 /well) were added to each well (in 100uL volume) to reach the final concentration range (10 μM to 0.0005 μM, 200 μL/well, 0.1% DMSO). Plates were incubated for 72 h at 37 °C then culture medium was aspirated and monolayers were fixed with 100% ethanol (ETOH) for 5 min at room temperature (RT). After rinsing with water, wells were stained with 0.1% crystal violet solution for 10 min at RT. Plates were rinsed with water, air dried, and absorption quantified on the Cytation 3 multi-mode imager at 570 nm wavelength. % parasite growth was calculated as 100−[(OD value for infected cultures at each concentration of compound/average OD value for no compound and no parasite infection) × 100]. EC50 values were calculated based on the mean of three biological replicates with each replicate containing two technical replicates.

[2] = tested on: T. gondii RHΔΔ TgPheRS[M484I] [V262A] double mutant; test: Tachyzoite lytic assay, M484I_V262A double mutant; assay type: cell-based, Toxoplasma gondii; details: for EC50: Toxoplasma gondii
Description: as §1, with “Parasites were allowed to recover overnight followed by sequential selection with pyrimethamine (1.0 μM) and 5-flurodeoxyuracil (FUDR, 10 μM), as described previously. Stable clones were isolated by limiting dilution and a clone from each genetic background selected based on high luciferase activity (Table 1).” left out
Parasite growth on HFF monolayers was monitored using a 96-well plate-based lytic assay modified from a previously described protocol. […] Plates were rinsed with water, air dried, and absorption quantified on the Cytation 3 multi-mode imager at 570 nm wavelength. % parasite growth was calculated as 100−[(OD value for infected cultures at each concentration of compound/average OD value for no compound and no parasite infection) × 100]. EC50 values were calculated based on the mean of three biological replicates with each replicate containing two technical replicates.

TgPheRS V262A M484I = target: T1, TgPheRS V262A M484I (Toxoplasma gondii, UniProt A0A125YPN6, M484I/V262A); test: Enzyme assay, TgPheRS V262A M484I double mutant; assay type: biochemical; details: for enzyme assay readout (raw): V262A / M484I
T1 sequence (A0A125YPN6 1-525 V262A/M484I): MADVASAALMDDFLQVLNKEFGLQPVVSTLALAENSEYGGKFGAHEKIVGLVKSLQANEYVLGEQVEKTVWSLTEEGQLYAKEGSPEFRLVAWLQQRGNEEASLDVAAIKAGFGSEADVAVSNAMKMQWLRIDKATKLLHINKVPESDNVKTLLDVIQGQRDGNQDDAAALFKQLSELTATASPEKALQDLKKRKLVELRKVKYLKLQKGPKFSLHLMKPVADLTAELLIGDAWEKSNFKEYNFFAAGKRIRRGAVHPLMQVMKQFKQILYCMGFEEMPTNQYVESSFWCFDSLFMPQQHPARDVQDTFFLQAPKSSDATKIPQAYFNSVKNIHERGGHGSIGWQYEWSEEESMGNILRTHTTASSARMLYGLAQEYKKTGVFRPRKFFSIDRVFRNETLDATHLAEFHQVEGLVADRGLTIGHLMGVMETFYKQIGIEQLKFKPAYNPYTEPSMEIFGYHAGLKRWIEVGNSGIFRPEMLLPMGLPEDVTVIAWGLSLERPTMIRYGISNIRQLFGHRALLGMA
T1 sequence (S8EZ50 1-675 partner): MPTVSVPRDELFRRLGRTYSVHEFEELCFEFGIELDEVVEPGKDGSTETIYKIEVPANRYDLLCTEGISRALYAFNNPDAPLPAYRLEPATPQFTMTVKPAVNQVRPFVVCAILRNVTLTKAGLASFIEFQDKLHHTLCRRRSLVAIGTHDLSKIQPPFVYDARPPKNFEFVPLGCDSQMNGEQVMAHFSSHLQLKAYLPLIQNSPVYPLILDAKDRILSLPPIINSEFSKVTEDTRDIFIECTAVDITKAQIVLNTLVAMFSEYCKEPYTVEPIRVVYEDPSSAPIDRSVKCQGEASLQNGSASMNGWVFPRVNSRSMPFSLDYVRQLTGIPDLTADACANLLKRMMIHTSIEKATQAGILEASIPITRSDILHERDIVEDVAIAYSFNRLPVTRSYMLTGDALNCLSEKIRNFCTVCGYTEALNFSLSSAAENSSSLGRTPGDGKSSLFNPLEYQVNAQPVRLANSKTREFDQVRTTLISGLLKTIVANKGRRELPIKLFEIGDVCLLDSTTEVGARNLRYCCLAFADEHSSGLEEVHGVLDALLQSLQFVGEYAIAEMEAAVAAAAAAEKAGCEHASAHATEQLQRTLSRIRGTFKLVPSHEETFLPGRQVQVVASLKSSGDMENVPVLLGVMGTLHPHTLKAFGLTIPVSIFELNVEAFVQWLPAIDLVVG

For COc1ccc(NC(=O)N2CCCCN3[C@H](CN(C)C)[C@H](c4ccc(C#Cc5ccccc5)cc4)[C@@H]3C2)cc1 [BRD7929], the “% Parasite Growth” value ([1]; 0.00152416 uM) was 80.35% and 85.68% and 82.9%, the “% Parasite Growth” value ([1]; 0.00457247 uM) was 85.9% and 86.11% and 77.47% and the “% Parasite Growth” value ([1]; 0.01371742 uM) was 84.76% and 87.14% and 84.02%. The “% Parasite Growth” value ([1]; 0.04115226 uM) was 84.55% and 85.22% and 84.57%, the “% Parasite Growth” value ([1]; 0.12345679 uM) was 86.89% and 87% and 83.23% and the “% Parasite Growth” value ([1]; 0.37037037 uM) was 70.95% and 85.33% and 85.39%. The “% Parasite Growth” value ([1]; 1.11111111 uM) was 77.92% and 85.54% and 61.12%, the “% Parasite Growth” value ([1]; 3.33333333 uM) was 63.14% and the “% Parasite Growth” value ([1]; 10 uM) was 57.07% and 70.68% and 64.5%. For the same molecule, the EC50 ([1]; read-out: EC50 (growth restriction)) was 2310 nM, the EC50 ([1]; read-out: EC50, L497I) was 1170 nM and the “shift of EC50, double mutant” value ([2]; M484I and V262A double mutant) was “only shifted the EC50 slightly more than every single mutation”. For the same molecule, the EC50 ([2]; 72 h, read-out: EC50, M484I_V262A) was 265 nM, the EC50 ([2]; Table S4, V262A-M484I, read-out: EC50 (growth restriction)) was 234 nM and the IC50 (TgPheRS V262A M484I; Table S4, V262A-M484I, read-out: IC50 (enzyme inhibition)) was 197 nM. The “enzyme assay readout (raw)” value (TgPheRS V262A M484I; 0.000005 μM) was 0.3462 and 0.3680 and 0.4006, the “enzyme assay readout (raw)” value (TgPheRS V262A M484I; 0.000050 μM) was 0.3131 and 0.3315 and 0.3158 and the “enzyme assay readout (raw)” value (TgPheRS V262A M484I; 0.000500 μM) was 0.3040 and 0.3143 and 0.2881. The “enzyme assay readout (raw)” value (TgPheRS V262A M484I; 0.005000 μM) was 0.2789 and 0.2890 and 0.2929, the “enzyme assay readout (raw)” value (TgPheRS V262A M484I; 0.050000 μM) was 0.2807 and 0.2760 and 0.2780 and the “enzyme assay readout (raw)” value (TgPheRS V262A M484I; 0.500000 μM) was 0.2333 and 0.2480 and 0.2628. For the same molecule, the “enzyme assay readout (raw)” value (TgPheRS V262A M484I; 5.000000 μM) was 0.2051 and 0.1829 and 0.2098 and the “enzyme assay readout (raw)” value (TgPheRS V262A M484I; 50.000000 μM) was 0.1004 and 0.1152 and 0.1172.
